Reference: paper PMC12491243, “Rational design of indoleamine 2,3-dioxygenase 1 (IDO1) inhibitors featuring 1,2,3-triazole derivatives with enhanced anti-inflammatory and analgesic efficacy” (Frontiers in Pharmacology, 2025)

How the values were obtained:
IL-1β = test: ELISA of IL-1β in inflamed paw, spinal cord and serum of CFA mice; type: in vivo; conditions: ipsilateral L4–L6 spinal cord and serum, 72 h after CFA
From the text: To determine whether the analgesic effects of Compound 14e are associated with reduced local and systemic inflammation, we measured the levels of inflammatory factors in the inflamed paw tissue, ipsilateral L4–L6 spinal cord, and peripheral blood. The results indicated a significant increase in the protein levels of TNF-α and IL-1β in the inflamed paw, spinal cord, and serum of mice in the CFA group compared to the vehicle group.
FIGURE 6 Compound 14e reduces TNF-α and IL-1β in the inflamed hindpaw skin, spinal cord and peripheral blood 72 h after CFA-induced inflammation. (A,D) Expression levels of TNF-α and IL-1β in the inflamed skin tissue. (B,E) Expression levels of TNF-α and IL-1β in ipsilateral L4–6 spinal cord. […]
Under anesthesia with 1% pentobarbital sodium, serum was obtained from the mice orbits, after coagulation at room temperature for 2 h, the sample was then centrifuged at 1,000 × g for 20 min at 4 °C, with the supernatant collected. […] The protein concentrations were determined using a bicinchoninic acid (BCA) kit (Pierce Biotechnology Inc.). The following inflammatory factors were measured using Mouse TNF-α ELISA kit (EM0183) and IL-1β ELISA kit (EM0109) obtained from Wuhan Fine Biotechnology Company, according to the product protocols. The O.D. absorbance at 450 nm was quantified in a ultramicroplate spectrophotometer (BioTek Epoch).

Iba1 = test: Western blot of Iba1 in spinal cord of CFA mice; type: in vivo; conditions: L4–L6 spinal cord, 30 mg/kg i.p. once a day for 3 days, versus vehicle group
Method: Given the critical role of microglial activation in inflammation-mediated responses, we investigated whether Compound 14e could modulate microglial activity in the spinal dorsal horn of mice following Complete Freund’s Adjuvant (CFA) injection. First, we assessed the expression of the microglial marker Iba1 in the L4–L6 segments of the spinal cord.
FIGURE 4 Compound 14e prevented the upregulation of Iba1 in CFA mice.
The mice were anesthetized with isoflurane, and 40 μL of CFA (Sigma-Aldrich) was intraplantarly injected into the mid-plantar surface of their left hind paws. As for the control group, an equivalent volume of normal saline was injected ([Jiang et al., 2018]).
The compound 14e were diluted with 10% DMSO, and were intraperitoneally injected with 30 mg/kg into the mice once a day for 3 days after CFA. The dosage of compound 14e was determined based on our preliminary experiments.
Animals were deeply anesthetized with 1% pentobarbital sodium (0.1 g/kg, i. p.) and the ipsilateral spinal cord in the lumbar enlargement site was rapidly separated and homogenized in ice-cold lysis buffer containing 50 mM Tris-HCl (pH 7.4), 150 mM NaCl, 1% NP-40, 0.1% SDS, 1 mM phenylmethylsulfonyl fluoride and protease phosphatase inhibitor (Solarbio Company, China). […] The protein concentrations were measured using a bicinchoninic acid (BCA) kit (Pierce Biotechnology Inc.). […]

Question: What does the source list for `O=C1COc2ccc(NC(=O)c3cccc(-c4cn(Cc5c(F)cccc5Cl)nn4)c3)cc2N1` [Compound 14e]?
Answer: CFA-induced levels of IL-1β (IL-1β): significantly decreased; Iba1 protein level (Western blot) (Iba1): significantly reduced
